The kinase profiling compilation of Christmann-Franck et al. (2016)
Where “and” joins values, the source holds several entries; their conditions need not be identical. Identical values can stand only once.

Experiments:
Test in all cases: KINOMEscan competition binding
Settings in all cases: compound 10.0 µM
[1] = molecular target: PHKG2 (human) (UniProt P15735)
[2] = molecular target: MYLK (human) (UniProt Q15746)
[3] = molecular target: TNIK (human) (UniProt Q9UKE5)
[4] = molecular target: NUAK1 (human) (UniProt O60285)
[5] = molecular target: JAK1 JH2 pseudokinase (human) (UniProt P23458)
[6] = molecular target: HCK (human) (UniProt P08631)
[7] = molecular target: MAP3K11 (human) (UniProt Q16584)
[8] = molecular target: SGK3 (human) (UniProt Q96BR1)
[9] = molecular target: MKNK2 (human) (UniProt Q9HBH9)
[10] = molecular target: STK36 (human) (UniProt Q9NRP7)
[11] = molecular target: ERBB4 (human) (UniProt Q15303)
[12] = molecular target: TAOK2 (human) (UniProt Q9UL54)
[13] = molecular target: MAPK11 (human) (UniProt Q15759)
[14] = molecular target: TNNI3K (human) (UniProt Q59H18)
[15] = molecular target: PAK7 (human) (UniProt Q9P286)
[16] = molecular target: RIPK1 (human) (UniProt Q13546)
[17] = molecular target: TRPM6 (human) (UniProt Q9BX84)
[18] = molecular target: CDK17 (human) (UniProt Q00537)
[19] = molecular target: RAF1 (human) (UniProt P04049)
[20] = molecular target: AURKC (human) (UniProt Q9UQB9)
[21] = molecular target: MARK3 (human) (UniProt P27448)
[22] = molecular target: MLTK (human) (UniProt Q9NYL2)
[23] = molecular target: PRKX (human) (UniProt P51817)
[24] = molecular target: HIPK1 (human) (UniProt Q86Z02)
[25] = molecular target: FGFR1 (human) (UniProt P11362)
[26] = molecular target: EPHB1 (human) (UniProt P54762)
[27] = molecular target: MTOR (human) (UniProt P42345)
[28] = molecular target: MAPKAPK5 (human) (UniProt Q8IW41)
[29] = molecular target: ROS1 (human) (UniProt P08922)
[30] = molecular target: SLK (human) (UniProt Q9H2G2)
[31] = tested on: MET (human), P08581 [Y1235D]
[32] = molecular target: STK3 (human) (UniProt Q13188)
[33] = molecular target: TAOK1 (human) (UniProt Q7L7X3)
[34] = molecular target: MYLK4 (human) (UniProt Q86YV6)
[35] = molecular target: STK35 (human) (UniProt Q8TDR2)
[36] = molecular target: MAP3K9 (human) (UniProt P80192)
[37] = molecular target: TIE1 (human) (UniProt P35590)
[38] = molecular target: PIK3CD (human) (UniProt O00329)
[39] = molecular target: CAMK2G (human) (UniProt Q13555)
[40] = molecular target: FRK (human) (UniProt P42685)

Sequence of MAP3K9 (human) (P80192 whole entry, looked up): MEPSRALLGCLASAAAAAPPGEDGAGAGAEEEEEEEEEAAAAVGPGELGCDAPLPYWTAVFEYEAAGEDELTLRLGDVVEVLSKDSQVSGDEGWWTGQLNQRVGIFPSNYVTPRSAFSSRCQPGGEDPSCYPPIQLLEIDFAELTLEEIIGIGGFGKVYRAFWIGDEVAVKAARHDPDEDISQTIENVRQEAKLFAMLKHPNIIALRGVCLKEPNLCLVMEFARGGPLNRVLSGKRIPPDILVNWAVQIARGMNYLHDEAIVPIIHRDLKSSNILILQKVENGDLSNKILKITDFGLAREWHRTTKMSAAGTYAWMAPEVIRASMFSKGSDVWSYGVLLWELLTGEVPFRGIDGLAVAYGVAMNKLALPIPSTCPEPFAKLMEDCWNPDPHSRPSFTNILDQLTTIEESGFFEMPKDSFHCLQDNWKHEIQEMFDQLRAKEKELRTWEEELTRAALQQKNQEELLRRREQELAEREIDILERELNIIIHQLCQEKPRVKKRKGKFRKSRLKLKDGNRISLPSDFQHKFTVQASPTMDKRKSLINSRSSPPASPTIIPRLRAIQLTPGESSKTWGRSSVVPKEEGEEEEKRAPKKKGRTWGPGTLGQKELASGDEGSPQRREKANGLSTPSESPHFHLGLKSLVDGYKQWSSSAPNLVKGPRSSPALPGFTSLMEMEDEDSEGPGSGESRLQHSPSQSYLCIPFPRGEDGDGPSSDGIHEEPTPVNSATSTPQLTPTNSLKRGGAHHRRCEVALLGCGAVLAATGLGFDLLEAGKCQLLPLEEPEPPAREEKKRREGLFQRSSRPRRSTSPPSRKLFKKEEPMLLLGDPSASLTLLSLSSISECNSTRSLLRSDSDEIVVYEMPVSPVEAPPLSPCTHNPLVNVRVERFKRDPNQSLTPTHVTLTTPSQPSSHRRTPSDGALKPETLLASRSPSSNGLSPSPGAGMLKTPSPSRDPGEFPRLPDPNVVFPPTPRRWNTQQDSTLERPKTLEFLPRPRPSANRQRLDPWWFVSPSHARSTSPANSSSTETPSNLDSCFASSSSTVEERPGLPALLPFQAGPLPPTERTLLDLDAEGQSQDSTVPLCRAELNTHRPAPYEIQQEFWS
Sequence of TNIK (human) (Q9UKE5 whole entry, looked up): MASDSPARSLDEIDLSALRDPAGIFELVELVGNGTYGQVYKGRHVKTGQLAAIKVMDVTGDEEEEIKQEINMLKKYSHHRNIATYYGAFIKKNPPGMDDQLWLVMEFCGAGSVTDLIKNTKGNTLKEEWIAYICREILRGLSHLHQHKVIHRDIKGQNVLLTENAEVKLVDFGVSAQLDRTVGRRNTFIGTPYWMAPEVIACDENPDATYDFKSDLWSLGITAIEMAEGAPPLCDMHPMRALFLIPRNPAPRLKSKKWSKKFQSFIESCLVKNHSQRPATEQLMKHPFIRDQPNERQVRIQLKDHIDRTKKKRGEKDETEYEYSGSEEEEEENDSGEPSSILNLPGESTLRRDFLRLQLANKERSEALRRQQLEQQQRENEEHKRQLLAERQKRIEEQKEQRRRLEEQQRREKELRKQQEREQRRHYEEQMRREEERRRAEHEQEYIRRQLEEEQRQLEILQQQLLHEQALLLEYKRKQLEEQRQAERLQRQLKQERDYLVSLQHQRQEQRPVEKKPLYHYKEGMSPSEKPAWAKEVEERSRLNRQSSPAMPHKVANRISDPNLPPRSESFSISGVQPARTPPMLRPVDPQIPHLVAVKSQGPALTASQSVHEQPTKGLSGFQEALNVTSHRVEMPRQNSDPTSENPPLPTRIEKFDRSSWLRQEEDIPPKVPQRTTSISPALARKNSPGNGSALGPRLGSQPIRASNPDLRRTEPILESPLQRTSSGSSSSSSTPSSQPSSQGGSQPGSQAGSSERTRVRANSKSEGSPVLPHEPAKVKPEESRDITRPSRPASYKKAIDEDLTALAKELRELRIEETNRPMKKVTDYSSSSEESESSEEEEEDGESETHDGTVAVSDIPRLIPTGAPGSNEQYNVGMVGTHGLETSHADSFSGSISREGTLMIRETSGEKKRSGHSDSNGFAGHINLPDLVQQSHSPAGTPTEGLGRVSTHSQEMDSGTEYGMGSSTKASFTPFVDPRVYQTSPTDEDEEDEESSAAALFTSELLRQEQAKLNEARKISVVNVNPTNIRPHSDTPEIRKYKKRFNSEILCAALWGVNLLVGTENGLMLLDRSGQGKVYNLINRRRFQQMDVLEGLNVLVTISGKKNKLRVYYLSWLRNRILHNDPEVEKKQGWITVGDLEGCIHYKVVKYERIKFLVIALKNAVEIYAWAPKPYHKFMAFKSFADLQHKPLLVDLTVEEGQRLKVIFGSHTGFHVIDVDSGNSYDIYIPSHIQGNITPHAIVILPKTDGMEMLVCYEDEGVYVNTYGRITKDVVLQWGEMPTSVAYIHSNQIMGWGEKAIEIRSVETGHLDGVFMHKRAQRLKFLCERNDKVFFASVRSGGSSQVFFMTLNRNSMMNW
Sequence of FGFR1 (human) (P11362 whole entry, looked up): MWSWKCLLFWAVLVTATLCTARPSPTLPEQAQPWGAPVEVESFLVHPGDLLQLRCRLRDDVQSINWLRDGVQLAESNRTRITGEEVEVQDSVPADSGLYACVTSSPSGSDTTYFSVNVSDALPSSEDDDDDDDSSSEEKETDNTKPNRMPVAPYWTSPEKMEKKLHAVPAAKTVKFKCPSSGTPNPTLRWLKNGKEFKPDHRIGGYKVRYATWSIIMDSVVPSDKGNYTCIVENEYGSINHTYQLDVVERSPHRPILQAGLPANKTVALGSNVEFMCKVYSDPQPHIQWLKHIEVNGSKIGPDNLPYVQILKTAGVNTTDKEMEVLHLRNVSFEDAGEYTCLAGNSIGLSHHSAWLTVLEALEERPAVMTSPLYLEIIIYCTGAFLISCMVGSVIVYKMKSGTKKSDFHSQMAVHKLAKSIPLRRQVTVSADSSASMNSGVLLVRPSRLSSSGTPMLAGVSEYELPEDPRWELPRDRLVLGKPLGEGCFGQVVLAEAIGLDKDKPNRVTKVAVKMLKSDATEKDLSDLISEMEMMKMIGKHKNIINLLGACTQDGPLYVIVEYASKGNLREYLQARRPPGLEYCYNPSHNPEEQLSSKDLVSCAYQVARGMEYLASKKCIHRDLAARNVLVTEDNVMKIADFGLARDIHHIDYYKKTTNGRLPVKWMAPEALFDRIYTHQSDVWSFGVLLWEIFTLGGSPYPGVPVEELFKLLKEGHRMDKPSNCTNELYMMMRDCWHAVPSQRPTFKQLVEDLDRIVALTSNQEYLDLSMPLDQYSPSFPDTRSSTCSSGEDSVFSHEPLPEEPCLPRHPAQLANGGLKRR
Sequence of PHKG2 (human) (P15735 whole entry, looked up): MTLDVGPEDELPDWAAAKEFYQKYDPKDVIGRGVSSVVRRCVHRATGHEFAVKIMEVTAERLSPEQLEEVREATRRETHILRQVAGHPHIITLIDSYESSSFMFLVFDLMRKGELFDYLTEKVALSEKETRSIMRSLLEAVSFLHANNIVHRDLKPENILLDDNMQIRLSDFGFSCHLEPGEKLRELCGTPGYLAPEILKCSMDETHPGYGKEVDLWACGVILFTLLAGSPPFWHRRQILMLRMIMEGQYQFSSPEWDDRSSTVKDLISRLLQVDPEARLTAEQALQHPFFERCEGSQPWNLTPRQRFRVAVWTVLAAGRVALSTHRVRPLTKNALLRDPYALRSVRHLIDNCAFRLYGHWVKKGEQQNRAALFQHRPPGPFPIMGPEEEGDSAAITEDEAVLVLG
Sequence of MKNK2 (human) (Q9HBH9 whole entry, looked up): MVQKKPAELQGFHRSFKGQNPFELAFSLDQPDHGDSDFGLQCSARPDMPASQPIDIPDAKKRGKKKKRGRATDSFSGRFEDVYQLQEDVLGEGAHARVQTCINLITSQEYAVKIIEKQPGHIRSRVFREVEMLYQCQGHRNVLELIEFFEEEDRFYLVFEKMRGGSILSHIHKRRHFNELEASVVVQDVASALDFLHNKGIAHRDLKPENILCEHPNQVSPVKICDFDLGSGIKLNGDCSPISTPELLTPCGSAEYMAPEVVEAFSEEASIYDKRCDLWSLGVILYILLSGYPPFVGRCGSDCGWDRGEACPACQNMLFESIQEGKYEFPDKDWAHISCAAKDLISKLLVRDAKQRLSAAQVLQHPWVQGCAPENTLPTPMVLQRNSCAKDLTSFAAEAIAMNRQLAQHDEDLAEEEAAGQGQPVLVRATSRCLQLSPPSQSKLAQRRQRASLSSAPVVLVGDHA
Sequence of RIPK1 (human) (Q13546 whole entry, looked up): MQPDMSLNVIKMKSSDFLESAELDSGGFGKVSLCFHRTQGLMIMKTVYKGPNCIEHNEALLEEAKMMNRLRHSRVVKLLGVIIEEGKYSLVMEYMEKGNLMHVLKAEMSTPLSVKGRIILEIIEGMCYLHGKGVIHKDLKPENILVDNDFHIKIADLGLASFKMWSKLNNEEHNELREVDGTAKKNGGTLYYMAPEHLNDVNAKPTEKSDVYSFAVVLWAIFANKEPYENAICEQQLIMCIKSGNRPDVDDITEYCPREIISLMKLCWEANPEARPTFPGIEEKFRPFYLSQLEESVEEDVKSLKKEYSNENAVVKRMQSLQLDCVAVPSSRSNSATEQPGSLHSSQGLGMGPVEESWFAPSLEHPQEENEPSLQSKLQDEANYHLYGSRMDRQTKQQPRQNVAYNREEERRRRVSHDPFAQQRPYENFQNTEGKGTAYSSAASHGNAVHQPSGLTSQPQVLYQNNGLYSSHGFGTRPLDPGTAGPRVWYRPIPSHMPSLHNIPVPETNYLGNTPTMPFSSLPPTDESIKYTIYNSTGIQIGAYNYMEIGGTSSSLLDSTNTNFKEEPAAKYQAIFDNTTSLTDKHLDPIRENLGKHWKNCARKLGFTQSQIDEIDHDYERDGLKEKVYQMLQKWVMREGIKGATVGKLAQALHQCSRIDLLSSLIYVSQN

| SMILES | kinase still bound, per cent of control [1] | kinase still bound, per cent of control [2] | kinase still bound, per cent of control [3] | kinase still bound, per cent of control [4] | kinase still bound, per cent of control [5] | kinase still bound, per cent of control [7] | kinase still bound, per cent of control [9] | kinase still bound, per cent of control [10] | kinase still bound, per cent of control [13] | kinase still bound, per cent of control [15] | kinase still bound, per cent of control [16] | kinase still bound, per cent of control [18] | kinase still bound, per cent of control [19] | kinase still bound, per cent of control [20] | kinase still bound, per cent of control [22] | kinase still bound, per cent of control [23] | kinase still bound, per cent of control [24] | kinase still bound, per cent of control [25] | kinase still bound, per cent of control [26] | kinase still bound, per cent of control [28] | other results |
| --- | --- | --- | --- | --- | --- | --- | --- | --- | --- | --- | --- | --- | --- | --- | --- | --- | --- | --- | --- | --- | --- |
| CNC(=O)c1cc(Oc2ccc(NC(=O)Nc3ccc(Cl)c(C(F)(F)F)c3)cc2)ccn1 | 100% | 83% | 27% | 84% | 100% | 99% | 0.1% | 23% | 0.2% | 100% | 81% | 17% | 0.05% | 100% | 4.2% | 100% | 13% | 5.2% | 30% | 100% | kinase still bound, per cent of control [6]: 27%; kinase still bound, per cent of control [8]: 82%; kinase still bound, per cent of control [11]: 100%; kinase still bound, per cent of control [12]: 1.6%; kinase still bound, per cent of control [14]: 19%; kinase still bound, per cent of control [17]: 100%; kinase still bound, per cent of control [21]: 74%; kinase still bound, per cent of control [27]: 80%; kinase still bound, per cent of control [29]: 83%; kinase still bound, per cent of control [30]: 15%; kinase still bound, per cent of control [31]: 70%; kinase still bound, per cent of control [32]: 85%; kinase still bound, per cent of control [33]: 23%; kinase still bound, per cent of control [34]: 100%; kinase still bound, per cent of control [35]: 34%; kinase still bound, per cent of control [36]: 88% |
| CCN(CC)CCCCNc1ncc2c(n1)N(C)C(=O)N(c1c(Cl)c(OC)cc(OC)c1Cl)C2 | 100% | 100% | 100% | 100% | 100% | 100% | 100% | 100% | 100% | 100% | 100% | 100% | 100% | 100% | 100% | 100% | 100% | 0.25% | 100% | 100% | kinase still bound, per cent of control [6]: 100%; kinase still bound, per cent of control [11]: 100%; kinase still bound, per cent of control [14]: 100%; kinase still bound, per cent of control [21]: 100%; kinase still bound, per cent of control [37]: 10%; kinase still bound, per cent of control [38]: 100%; kinase still bound, per cent of control [39]: 100%; kinase still bound, per cent of control [29]: 100%; kinase still bound, per cent of control [30]: 100%; kinase still bound, per cent of control [31]: 100%; kinase still bound, per cent of control [32]: 100%; kinase still bound, per cent of control [33]: 0.25% and 2.9%; kinase still bound, per cent of control [34]: 100%; kinase still bound, per cent of control [40]: 100%; kinase still bound, per cent of control [35]: 100%; kinase still bound, per cent of control [36]: 100% |
| C[C@@H](Oc1cc(-c2cnn(C3CCNCC3)c2)cnc1N)c1c(Cl)ccc(F)c1Cl | 32% | 82% | 51% | 0.7% | 1.8% | 81% | 11% | 100% | 100% | 49% | 5% | 62% | 93% | 3.4% | 100% | 94% | 78% | 46% | 0.15% | 68% | kinase still bound, per cent of control [8]: 100%; kinase still bound, per cent of control [12]: 0.9%; kinase still bound, per cent of control [17]: 79%; kinase still bound, per cent of control [38]: 100%; kinase still bound, per cent of control [39]: 100%; kinase still bound, per cent of control [27]: 100%; kinase still bound, per cent of control [29]: 1.1%; kinase still bound, per cent of control [30]: 0.1%; kinase still bound, per cent of control [32]: 0%; kinase still bound, per cent of control [33]: 1.2%; kinase still bound, per cent of control [34]: 86%; kinase still bound, per cent of control [40]: 15%; kinase still bound, per cent of control [36]: 80% |
